Active and inactive are the calls of the source.
Tests used:
[1] = target: Peroxisome proliferator-activated receptor gamma/Nuclear receptor coactivator 1 (Homo sapiens, UniProt P37231); test: (§1) TR-FRET dose response biochemical High Throughput Screening assay for agonists of the steroid receptor coactivator 1 (SRC-1) recruitment by the peroxisome proliferator-activated receptor gamma (PPAR gamma): non-selective agonists. [Related pubchem assays (depositor defined):AID1300, AID1808, AID504735, AID631]; format: protein assay
[2] = target: Peroxisome proliferator-activated receptor gamma/Nuclear receptor coactivator 3 (Homo sapiens, UniProt P37231); test: as §1, with “3 (SRC-3)” for “1 (SRC-1)”, “assays: 1301 (Confirmation screen.), 1048 (Primary screen.)]” for “assays (depositor defined):AID1300, AID1808, AID504735, AID631]”; format: functional
Chain of Peroxisome proliferator-activated receptor gamma/Nuclear receptor coactivator 3 (P37231 whole entry): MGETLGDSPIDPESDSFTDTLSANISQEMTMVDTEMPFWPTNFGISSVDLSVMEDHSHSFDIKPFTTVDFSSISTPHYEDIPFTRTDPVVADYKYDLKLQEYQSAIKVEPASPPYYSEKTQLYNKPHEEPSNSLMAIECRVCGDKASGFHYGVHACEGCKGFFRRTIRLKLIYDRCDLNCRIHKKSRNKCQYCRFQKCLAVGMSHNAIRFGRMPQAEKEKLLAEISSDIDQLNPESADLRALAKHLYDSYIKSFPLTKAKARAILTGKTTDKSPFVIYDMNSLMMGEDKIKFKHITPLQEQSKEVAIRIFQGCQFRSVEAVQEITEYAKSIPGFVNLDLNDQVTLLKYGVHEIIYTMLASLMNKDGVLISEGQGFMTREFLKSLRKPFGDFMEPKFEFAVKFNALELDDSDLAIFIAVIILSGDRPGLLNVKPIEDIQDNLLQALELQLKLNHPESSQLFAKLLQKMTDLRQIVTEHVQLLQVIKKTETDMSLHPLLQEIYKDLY
Chain of Peroxisome proliferator-activated receptor gamma/Nuclear receptor coactivator 3 (Q9Y6Q9 whole entry, further chain): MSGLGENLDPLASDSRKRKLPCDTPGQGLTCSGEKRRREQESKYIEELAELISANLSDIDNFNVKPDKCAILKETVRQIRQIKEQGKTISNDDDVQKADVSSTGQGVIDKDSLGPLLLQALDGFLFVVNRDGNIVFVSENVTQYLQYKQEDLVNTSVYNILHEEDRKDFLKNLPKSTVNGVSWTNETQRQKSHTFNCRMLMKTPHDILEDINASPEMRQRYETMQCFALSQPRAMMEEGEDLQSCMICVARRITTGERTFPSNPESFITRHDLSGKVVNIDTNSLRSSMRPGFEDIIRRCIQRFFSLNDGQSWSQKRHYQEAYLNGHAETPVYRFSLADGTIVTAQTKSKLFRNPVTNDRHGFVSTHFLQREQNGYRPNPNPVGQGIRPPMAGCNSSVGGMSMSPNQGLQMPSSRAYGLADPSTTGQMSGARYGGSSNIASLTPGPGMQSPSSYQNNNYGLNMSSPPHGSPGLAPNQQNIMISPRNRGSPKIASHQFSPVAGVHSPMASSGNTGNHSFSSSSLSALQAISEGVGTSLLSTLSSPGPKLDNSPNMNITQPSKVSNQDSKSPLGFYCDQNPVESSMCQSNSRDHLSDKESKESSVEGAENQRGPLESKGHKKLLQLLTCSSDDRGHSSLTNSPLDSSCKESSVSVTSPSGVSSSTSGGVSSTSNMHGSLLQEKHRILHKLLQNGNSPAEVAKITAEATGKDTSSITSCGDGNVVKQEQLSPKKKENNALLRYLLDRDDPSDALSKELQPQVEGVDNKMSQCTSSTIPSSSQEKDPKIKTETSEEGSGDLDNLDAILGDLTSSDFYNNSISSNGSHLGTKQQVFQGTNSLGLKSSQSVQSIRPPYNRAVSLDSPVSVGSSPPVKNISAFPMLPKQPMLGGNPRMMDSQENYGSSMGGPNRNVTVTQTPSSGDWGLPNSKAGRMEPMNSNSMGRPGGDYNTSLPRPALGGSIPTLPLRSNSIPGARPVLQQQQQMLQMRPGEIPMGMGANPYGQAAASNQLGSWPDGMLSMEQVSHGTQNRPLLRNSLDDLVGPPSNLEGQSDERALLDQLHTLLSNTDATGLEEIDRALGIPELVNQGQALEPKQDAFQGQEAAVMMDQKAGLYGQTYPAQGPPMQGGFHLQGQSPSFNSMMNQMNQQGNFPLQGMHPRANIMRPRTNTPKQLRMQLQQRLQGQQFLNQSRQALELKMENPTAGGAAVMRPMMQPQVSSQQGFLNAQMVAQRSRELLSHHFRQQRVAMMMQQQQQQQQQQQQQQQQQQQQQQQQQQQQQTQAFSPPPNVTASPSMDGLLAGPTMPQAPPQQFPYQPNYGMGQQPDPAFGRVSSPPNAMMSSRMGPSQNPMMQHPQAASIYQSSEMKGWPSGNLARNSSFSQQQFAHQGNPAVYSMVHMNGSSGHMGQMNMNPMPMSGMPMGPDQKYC

[3] = target: Peroxisome proliferator-activated receptor gamma/Nuclear receptor coactivator 2 (Homo sapiens, UniProt P37231); test: TR-FRET dose response biochemical High Throughput Screening assay for agonists of the steroid receptor coactivator 2 (SRC-2) recruitment by the peroxisome proliferator-activated receptor gamma (PPAR gamma): non-selective agonists. [Related pubchem assays: 1297, 1032 ]; format: functional
Chain of Peroxisome proliferator-activated receptor gamma/Nuclear receptor coactivator 2 (P37231 whole entry): as the sequence (P37231 whole entry) above
Chain of Peroxisome proliferator-activated receptor gamma/Nuclear receptor coactivator 2 (Q15596 whole entry, further chain): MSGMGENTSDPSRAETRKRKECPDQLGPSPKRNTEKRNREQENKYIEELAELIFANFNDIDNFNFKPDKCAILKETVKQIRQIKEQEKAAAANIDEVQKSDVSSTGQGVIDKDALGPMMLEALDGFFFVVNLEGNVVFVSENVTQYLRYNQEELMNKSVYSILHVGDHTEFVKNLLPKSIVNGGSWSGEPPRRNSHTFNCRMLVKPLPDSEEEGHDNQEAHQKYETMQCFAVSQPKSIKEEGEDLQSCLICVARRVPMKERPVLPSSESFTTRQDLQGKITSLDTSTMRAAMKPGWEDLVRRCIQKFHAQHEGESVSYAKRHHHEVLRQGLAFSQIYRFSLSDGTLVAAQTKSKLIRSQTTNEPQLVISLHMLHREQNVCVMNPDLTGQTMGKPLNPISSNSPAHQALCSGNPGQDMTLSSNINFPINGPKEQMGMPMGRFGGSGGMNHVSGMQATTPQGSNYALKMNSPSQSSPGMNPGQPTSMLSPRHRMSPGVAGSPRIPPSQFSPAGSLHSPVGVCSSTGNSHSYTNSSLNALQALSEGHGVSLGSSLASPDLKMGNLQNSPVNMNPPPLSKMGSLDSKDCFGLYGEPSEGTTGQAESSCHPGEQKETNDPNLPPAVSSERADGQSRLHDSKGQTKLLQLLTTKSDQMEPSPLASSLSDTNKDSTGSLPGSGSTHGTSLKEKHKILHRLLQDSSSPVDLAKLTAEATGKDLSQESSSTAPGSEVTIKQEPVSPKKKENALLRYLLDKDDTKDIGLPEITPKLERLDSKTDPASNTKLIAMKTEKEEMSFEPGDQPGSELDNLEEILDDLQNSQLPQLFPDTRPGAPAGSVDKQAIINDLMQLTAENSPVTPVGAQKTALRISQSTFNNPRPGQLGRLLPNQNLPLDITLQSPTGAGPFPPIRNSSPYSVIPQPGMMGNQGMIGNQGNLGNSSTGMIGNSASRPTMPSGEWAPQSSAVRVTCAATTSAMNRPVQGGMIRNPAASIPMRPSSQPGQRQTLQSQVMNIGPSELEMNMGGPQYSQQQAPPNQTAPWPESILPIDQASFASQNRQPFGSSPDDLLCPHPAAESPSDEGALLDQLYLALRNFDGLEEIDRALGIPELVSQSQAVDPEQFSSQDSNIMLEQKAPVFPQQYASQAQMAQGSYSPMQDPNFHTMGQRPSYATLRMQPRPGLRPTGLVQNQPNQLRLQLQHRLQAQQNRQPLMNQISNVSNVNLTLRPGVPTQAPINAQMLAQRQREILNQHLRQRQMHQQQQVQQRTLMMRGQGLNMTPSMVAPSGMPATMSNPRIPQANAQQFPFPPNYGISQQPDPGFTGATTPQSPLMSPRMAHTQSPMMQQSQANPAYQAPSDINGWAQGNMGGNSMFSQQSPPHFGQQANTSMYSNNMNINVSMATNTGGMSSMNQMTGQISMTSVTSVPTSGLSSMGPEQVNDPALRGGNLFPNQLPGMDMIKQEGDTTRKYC

Hexokinase HKDC1 = target: T1, Hexokinase HKDC1 (Homo sapiens, UniProt Q2TB90); test: activation of HKDC1 glucose phosphorylation – biochemical, W721R variant, dose response (AID 504730); format: functional
T1 sequence (Q2TB90 whole entry): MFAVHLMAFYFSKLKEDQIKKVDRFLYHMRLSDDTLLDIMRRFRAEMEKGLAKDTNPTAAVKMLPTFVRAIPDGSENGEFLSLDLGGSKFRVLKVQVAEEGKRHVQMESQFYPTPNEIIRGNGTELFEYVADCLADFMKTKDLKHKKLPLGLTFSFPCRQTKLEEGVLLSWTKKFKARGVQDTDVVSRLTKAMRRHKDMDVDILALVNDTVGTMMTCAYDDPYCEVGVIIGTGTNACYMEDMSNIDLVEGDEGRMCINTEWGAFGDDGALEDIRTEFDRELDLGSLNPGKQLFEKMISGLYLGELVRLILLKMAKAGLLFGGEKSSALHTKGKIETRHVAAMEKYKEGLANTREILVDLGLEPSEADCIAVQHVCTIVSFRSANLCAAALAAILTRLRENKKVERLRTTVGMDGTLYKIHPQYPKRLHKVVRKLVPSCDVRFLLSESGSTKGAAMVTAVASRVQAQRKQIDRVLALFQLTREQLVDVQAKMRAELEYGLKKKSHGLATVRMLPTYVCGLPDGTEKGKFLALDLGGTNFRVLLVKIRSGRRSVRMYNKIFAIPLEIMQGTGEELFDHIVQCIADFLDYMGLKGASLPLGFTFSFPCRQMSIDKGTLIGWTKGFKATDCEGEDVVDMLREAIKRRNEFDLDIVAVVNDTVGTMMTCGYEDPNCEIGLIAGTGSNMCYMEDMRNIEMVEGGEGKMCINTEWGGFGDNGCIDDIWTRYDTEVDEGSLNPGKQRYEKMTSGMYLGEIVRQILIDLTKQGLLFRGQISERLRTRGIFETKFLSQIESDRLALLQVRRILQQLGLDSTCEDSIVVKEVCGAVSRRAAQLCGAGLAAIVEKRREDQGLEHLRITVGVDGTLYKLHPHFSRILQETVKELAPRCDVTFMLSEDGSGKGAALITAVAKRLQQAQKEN

Hexokinase-1 = target: T2, Hexokinase-1 (Homo sapiens, UniProt P19367); test: HK1 enzyme activation by HKDC1 hits – biochemical, selectivity assay for HKDC1 activator project, dose response (AID 504762); format: functional
T2 sequence (P19367 whole entry): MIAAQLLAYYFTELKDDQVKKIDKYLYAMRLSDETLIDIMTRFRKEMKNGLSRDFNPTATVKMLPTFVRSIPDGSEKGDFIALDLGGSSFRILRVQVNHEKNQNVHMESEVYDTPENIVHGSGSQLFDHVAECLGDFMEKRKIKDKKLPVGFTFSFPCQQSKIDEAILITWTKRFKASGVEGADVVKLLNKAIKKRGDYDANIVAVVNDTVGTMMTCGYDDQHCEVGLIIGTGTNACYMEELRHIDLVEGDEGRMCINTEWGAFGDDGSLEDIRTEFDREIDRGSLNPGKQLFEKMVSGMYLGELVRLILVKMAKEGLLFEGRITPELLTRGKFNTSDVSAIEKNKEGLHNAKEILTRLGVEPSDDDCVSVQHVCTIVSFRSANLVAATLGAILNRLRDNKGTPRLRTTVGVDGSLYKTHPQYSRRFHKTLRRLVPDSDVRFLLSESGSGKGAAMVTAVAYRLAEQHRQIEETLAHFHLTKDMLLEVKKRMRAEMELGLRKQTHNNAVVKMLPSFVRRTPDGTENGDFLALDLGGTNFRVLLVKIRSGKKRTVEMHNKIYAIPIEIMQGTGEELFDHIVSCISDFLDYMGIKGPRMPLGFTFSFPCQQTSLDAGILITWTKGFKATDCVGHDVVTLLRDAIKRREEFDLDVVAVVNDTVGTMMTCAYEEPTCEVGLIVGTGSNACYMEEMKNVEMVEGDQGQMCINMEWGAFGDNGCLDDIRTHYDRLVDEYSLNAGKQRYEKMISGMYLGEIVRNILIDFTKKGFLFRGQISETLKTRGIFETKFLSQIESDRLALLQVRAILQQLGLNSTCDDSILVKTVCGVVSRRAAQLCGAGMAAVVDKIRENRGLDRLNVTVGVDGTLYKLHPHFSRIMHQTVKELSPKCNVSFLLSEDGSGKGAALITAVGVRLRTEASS

[4] = Counterscreen for IDE inhibitors: Luminescence-based cell-based high throughput dose response assay to identify compounds that are cytotoxic to HEK cells. [Related pubchem assays: 434962 (Primary screen (IDE inhibitors in singlicate)), 449730 (Counterscreen (Cytotoxicity in triplicate)), 435028 (Confirmation (IDE inhibitors in triplicate)) …; format: functional; details: HEK293
Insulin-degrading enzyme = target: T3, Insulin-degrading enzyme (Homo sapiens, UniProt P14735); test: Dose Response: Fluorescence polarization-based cell-based high throughput dose response assay for inhibitors of insulin-degrading enzyme (IDE). [Related pubchem assays: 434962 (Primary screen (IDE inhibitors in singlicate)), 449730 (Counterscreen (Cytotoxicity in triplicate)), 435028 (Confirmation (IDE inhibitors in triplicate)), 434984 (Summary …; format: functional
T3 sequence (P14735 whole entry): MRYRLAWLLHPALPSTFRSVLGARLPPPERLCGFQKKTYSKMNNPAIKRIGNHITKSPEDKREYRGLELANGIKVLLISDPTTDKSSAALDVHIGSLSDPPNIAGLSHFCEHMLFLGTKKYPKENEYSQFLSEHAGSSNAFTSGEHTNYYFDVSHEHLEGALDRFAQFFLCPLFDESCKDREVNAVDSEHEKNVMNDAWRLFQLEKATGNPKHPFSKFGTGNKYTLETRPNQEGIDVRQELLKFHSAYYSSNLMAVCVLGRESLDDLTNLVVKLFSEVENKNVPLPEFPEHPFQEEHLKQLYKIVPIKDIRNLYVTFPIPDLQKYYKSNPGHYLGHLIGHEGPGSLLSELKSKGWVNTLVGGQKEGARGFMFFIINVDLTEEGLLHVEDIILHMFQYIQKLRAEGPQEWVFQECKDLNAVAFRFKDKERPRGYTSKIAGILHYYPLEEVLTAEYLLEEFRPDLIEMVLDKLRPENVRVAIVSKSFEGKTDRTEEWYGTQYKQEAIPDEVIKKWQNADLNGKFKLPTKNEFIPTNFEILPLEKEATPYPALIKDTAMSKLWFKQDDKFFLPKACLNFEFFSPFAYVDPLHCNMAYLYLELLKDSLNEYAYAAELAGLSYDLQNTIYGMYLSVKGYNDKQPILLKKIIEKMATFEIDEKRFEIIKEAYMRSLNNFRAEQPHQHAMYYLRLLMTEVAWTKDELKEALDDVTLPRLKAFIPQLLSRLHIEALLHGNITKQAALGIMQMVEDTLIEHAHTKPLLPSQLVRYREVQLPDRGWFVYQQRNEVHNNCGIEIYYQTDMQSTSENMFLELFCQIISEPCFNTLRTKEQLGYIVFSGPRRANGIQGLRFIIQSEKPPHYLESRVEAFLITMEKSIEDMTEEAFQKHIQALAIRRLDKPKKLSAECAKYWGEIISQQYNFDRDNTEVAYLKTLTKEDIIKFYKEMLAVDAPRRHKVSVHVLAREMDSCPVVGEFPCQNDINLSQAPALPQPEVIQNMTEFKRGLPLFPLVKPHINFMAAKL

[5] = target: Intestinal-type alkaline phosphatase (Homo sapiens, UniProt P09923); test: activation of human intestinal alkaline phosphatase – biochemical, dose response (AID 488873); format: functional
Chain of Intestinal-type alkaline phosphatase (Homo sapiens, UniProt P09923) (P09923 whole entry): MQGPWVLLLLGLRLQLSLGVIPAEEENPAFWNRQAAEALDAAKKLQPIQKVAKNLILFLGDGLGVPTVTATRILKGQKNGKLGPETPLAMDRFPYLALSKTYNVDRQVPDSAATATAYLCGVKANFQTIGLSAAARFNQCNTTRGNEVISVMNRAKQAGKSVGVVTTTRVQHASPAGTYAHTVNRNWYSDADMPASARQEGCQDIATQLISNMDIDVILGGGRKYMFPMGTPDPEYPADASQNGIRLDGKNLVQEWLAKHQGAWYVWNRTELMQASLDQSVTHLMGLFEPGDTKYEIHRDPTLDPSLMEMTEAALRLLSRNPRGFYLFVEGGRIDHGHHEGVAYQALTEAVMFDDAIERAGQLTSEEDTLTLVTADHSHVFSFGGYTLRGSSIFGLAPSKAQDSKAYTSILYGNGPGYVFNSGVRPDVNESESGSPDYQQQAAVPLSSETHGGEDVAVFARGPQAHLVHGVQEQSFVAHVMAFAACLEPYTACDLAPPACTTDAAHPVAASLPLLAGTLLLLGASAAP

[6] = target: Intestinal-type alkaline phosphatase (Mus musculus, UniProt P24822); test: mouse intestinal alkaline phosphatase activators, dose response, biochemical, luminescence, uHTS hits (AID 488783); format: functional
[7] = target: T4, Alkaline phosphatase, tissue-nonspecific isozyme (Homo sapiens, UniProt P05186); test: activation of tissue-nonspecific alkaline phosphatase – biochemical, TNAP isozyme, mouse IAP uHTS hits, selectivity assay for mouse IAP activator project, dose response (AID 488880); format: functional
T4 sequence (P05186 whole entry): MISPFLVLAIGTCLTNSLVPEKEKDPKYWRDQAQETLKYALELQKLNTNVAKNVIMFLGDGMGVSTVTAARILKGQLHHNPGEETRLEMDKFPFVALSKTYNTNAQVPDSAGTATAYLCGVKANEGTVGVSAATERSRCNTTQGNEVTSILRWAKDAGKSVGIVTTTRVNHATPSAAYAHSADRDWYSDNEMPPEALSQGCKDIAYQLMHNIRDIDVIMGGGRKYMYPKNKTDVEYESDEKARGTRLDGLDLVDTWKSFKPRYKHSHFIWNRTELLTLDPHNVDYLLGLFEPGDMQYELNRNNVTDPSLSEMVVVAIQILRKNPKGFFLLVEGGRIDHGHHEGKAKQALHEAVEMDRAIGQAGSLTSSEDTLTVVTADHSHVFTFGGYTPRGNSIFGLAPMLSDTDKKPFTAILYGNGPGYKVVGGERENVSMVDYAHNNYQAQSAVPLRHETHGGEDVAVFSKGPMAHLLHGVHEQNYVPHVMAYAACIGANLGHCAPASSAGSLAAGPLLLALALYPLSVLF

[8] = target: Dual specificity tyrosine-phosphorylation-regulated kinase 1A (Rattus norvegicus, UniProt Q63470); format: biochemical, Homo sapiens
Nonstructural protein 1 = Nonstructural protein 1 (Influenza A virus, UniProt Q194T2); format: functional, Influenza A virus (A/California/07/2009(H1N1))
Chain of Nonstructural protein 1 (Q194T2 whole entry): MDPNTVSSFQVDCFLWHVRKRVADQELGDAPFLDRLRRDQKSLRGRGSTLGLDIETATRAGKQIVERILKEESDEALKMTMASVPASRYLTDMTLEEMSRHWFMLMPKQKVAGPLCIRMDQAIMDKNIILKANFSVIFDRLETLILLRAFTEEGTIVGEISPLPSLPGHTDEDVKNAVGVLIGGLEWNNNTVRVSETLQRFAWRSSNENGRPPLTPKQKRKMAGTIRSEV

[9] = target: Heat shock protein HSP 90-alpha (Homo sapiens, UniProt P07900); format: functional, organism-based
Paired box protein Pax-8 = Paired box protein Pax-8 (Homo sapiens, UniProt Q06710); test: PAX8 transcriptional activity inhibition in RMG-I – RMG-I cells, luciferase, cherry-pick, dose response (AID 687027); format: functional, cell-based;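 note: luciferase reporter driven by Pax8 target thyroperoxidase promoter measured by SteadyGlo luminescence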

Question: For `Fc1cccc(CSc2ncnc3c2oc2ccccc23)c1`, which EC50 [1] is on record?
Answer: 24.2 µM (inactive)

Question: What about the EC50 [2] of the same compound?
Answer: 85.8 µM (not active)

Question: And the EC50 [3]?
Answer: 14.3 µM (not active)

Question: With `Cc1ccc2oc(=O)c3cnn(CC(=O)N4CCc5ccccc5C4)c3c2c1` as the compound, how does the EC50 (Hexokinase HKDC1) read?
Answer: 16 µM (active)

Question: And the EC50 (Hexokinase-1)?
Answer: 36.7 µM (inactive)

Question: For `CSC1=NSC2=NC(=O)/C(=C/c3coc4ccc(O)cc4c3=O)C(=N)N12`, which IC50 [4] is on record?
Answer: > 55.7 µM (not active)

Question: And the IC50 (Insulin-degrading enzyme)?
Answer: > 6.21 µM (active)

Question: What about the EC50 [5] of the same compound?
Answer: 24.9 µM (active)

Question: And the EC50 [6]?
Answer: 20.8 µM (active)

Question: And the EC50 [7]?
Answer: 30.2 µM (active)

Question: And the AC50 [8]?
Answer: 7.62 µM (active)

Question: For `O=C(CSc1ccccc1)Nc1ccc(C(=O)Nc2ccc(O)cc2)cc1`, which EC50 [1] is on record?
Answer: 9.68 µM (active)

Question: And the EC50 [2]?
Answer: 58.3 µM (not active)

Question: And the EC50 [3]?
Answer: 8.24 µM (active)

Question: With `CC(=NNC(=S)N1CCN(C2CCCCCC2)CC1)c1ccccn1` as the compound, how does the EC50 (Hexokinase HKDC1) read?
Answer: 8.14 µM (active)

Question: What about the IC50 (Nonstructural protein 1) of the same compound?
Answer: 1.66 µM (active)

Question: What about the EC50 (Hexokinase-1) of the same compound?
Answer: > 80 µM (inactive)

Question: And the AC50 [9]?
Answer: 3.35 µM (active)

Question: And the AC50 (Paired box protein Pax-8)?
Answer: < 0.26 µM (active)
